Measurements published in patent US10610529B2, “Trabectedin-inclusive injectable pharmaceutical composition for gastrointestinal external use and a method for manufacturing the same” (priority 2016, dated 2020).

Tests used:
[1] = Measurement of related substances and placement stability of lyophilized formulation (accelerated and long-term conditions); format: physicochemical; conditions: API, no storage item given
Procedure: The above intermediate solution was lyophilized to prepare a lyophilized trabectedin formulation. The appearance, water content, reconstitution and pH were investigated. The change of related substances after lyophilization and the placement stability under accelerated conditions (25° C. 60% RH) and long-term conditions (2-8° C.) were measured.
The above lyophilized formulations were stored under accelerated conditions (25° C. 60% RH), and the related substances and water content were measured at different time points.

[2] = High-temperature stability of lyophilized products comprising different ratios of glucose/dextran 40; format: physicochemical; conditions: API, no storage time given
[3] = cited from earlier work
[4] = cited from earlier work; remark: listed apart in the source

COc1cc2c(cc1O)CCN[C@]21CS[C@@H]2c3c(OC(C)=O)c(C)c4c(c3[C@H](COC1=O)N1[C@@H]2[C@H]2c3c(cc(C)c(OC)c3O)C[C@@H]([C@@H]1O)N2C)OCO4 [API, Trabectedin]
ET-745 (%) [1]: 0.25% | ET-759B (%) [1]: 0.31% | Total impurities (%) [1]: 2.56% | ET-745 (%) [2]: 0.25% | ET-759B (%) [2]: 0.31% | Total impurities (%) [2]: 2.56% | solubility in pure water [3]: limited | storage time ([4]; refrigerated at 5° C.): ≤ 1 month | thermal stability ([4]; room temperature (25° C.)): rapidly degrades
